Experimental data taken from PubChem BioAssay AID1963424 (Molecular Pharmacology Branch, DTP, NCI, 2024).

Test system: 327498-153-R-J2-PDC complex spheroid growth, % test/control
Test: Anticancer human tumor 327498-153-R-J2-PDC patient-derived uterine carcinosarcoma cell line growth inhibition [Asc]
Conditions: for IC50: curve of first compound; for viability, T/C: stronger effect = lower value
Procedure, shortened: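 Spheroid model: tumor line + HUVEC + hMSC. Single agents and combinations; top conc. at/near clinical Cmax (10 microM if undetermined), half-log dilutions. DMSO stocks at 800-fold test concentration.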

[1] = second compound 0.1 µM, first compound 0.00316 µM
[2] = second compound 0.1 µM, first compound 0.01 µM
[3] = second compound 0.1 µM, first compound 0.0316 µM
[4] = second compound 0.1 µM, first compound 0.1 µM
[5] = second compound 0.1 µM, first compound 0.316 µM
[6] = second compound 0.1 µM, first compound 1 µM
[7] = second compound 0.316 µM, first compound 0.00316 µM
[8] = second compound 0.316 µM, first compound 0.01 µM
[9] = second compound 0.316 µM, first compound 0.0316 µM
[10] = second compound 0.316 µM, first compound 0.1 µM
[11] = second compound 0.316 µM, first compound 0.316 µM
[12] = second compound 0.316 µM, first compound 1 µM
[13] = second compound 1 µM, first compound 0.00316 µM
[14] = second compound 1 µM, first compound 0.01 µM
[15] = second compound 1 µM, first compound 0.0316 µM
[16] = second compound 1 µM, first compound 0.1 µM
[17] = second compound 1 µM, first compound 0.316 µM
[18] = second compound 1 µM, first compound 1 µM
[19] = second compound 3.16 µM, first compound 0.00316 µM
[20] = second compound 3.16 µM, first compound 0.01 µM
[21] = second compound 3.16 µM, first compound 0.0316 µM
[22] = second compound 3.16 µM, first compound 0.1 µM
[23] = second compound 3.16 µM, first compound 0.316 µM
[24] = second compound 3.16 µM, first compound 1 µM
[25] = second compound 10 µM, first compound 0.00316 µM
[26] = second compound 10 µM, first compound 0.01 µM
[27] = second compound 10 µM, first compound 0.0316 µM
[28] = second compound 10 µM, first compound 0.1 µM
[29] = second compound 10 µM, first compound 0.316 µM
[30] = second compound 10 µM, first compound 1 µM
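Note: spheroids exposed to compound for 7 days after 3 days of growth.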
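Throughout, for viability, T/C: 100% = DMSO vehicle control wells.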

## CCN1CCN(Cc2ccc(Nc3ncc(F)c(-c4cc(F)c5nc(C)n(C(C)C)c5c4)n3)nc2)CC1 + Cc1c(S(C)(=O)=O)c(-c2cc(F)cc(N3CCN(c4ccc(NS(=O)(=O)c5ccc(NC(CCN6CCC(C(=O)OCCCP(=O)(O)O)CC6)CSc6ccccc6)c(S(=O)(=O)C(F)(F)F)c5)cc4)CC3)c2)c(-c2ccc(Cl)cc2)n1C(C)C
Second compound 0.1 µM
  IC50: > 1000 nM
Second compound 0.316 µM
  IC50: > 1000 nM
Second compound 1 µM
  IC50: > 1000 nM
Second compound 3.16 µM
  IC50: > 1000 nM
Second compound 10 µM
  IC50: > 1000 nM
[1]
  viability, T/C: 101%
[2]
  viability, T/C: 94.9%
[3]
  viability, T/C: 76.3%
[4]
  viability, T/C: 64.1%
[5]
  viability, T/C: 64.5%
[6]
  viability, T/C: 67.8%
[7]
  viability, T/C: 94.7%
[8]
  viability, T/C: 95.2%
[9]
  viability, T/C: 78.2%
[10]
  viability, T/C: 63.9%
[11]
  viability, T/C: 49.7%
[12]
  viability, T/C: 55.8%
[13]
  viability, T/C: 95.3%
[14]
  viability, T/C: 93%
[15]
  viability, T/C: 85.9%
[16]
  viability, T/C: 65.7%
[17]
  viability, T/C: 56.9%
[18]
  viability, T/C: 57.2%
[19]
  viability, T/C: 105%
[20]
  viability, T/C: 94.7%
[21]
  viability, T/C: 72.1%
[22]
  viability, T/C: 55.8%
[23]
  viability, T/C: 62.3%
[24]
  viability, T/C: 49.5%
[25]
  viability, T/C: 184%
[26]
  viability, T/C: 172%
[27]
  viability, T/C: 145%
[28]
  viability, T/C: 105%
[29]
  viability, T/C: 96%
[30]
  viability, T/C: 79.4%

## Cn1ncnc1[C@H]1c2n[nH]c(=O)c3cc(F)cc(c23)N[C@@H]1c1ccc(F)cc1 + Cc1c(S(C)(=O)=O)c(-c2cc(F)cc(N3CCN(c4ccc(NS(=O)(=O)c5ccc(NC(CCN6CCC(C(=O)OCCCP(=O)(O)O)CC6)CSc6ccccc6)c(S(=O)(=O)C(F)(F)F)c5)cc4)CC3)c2)c(-c2ccc(Cl)cc2)n1C(C)C
Second compound 0.1 µM
  IC50: 10.9 nM
Second compound 0.316 µM
  IC50: 11.4 nM
Second compound 1 µM
  IC50: 7.37 nM
Second compound 3.16 µM
  IC50: 8.06 nM
Second compound 10 µM
  IC50: 10.3 nM
Second compound 0.1 µM, first compound 0.000316 µM
  viability, T/C: 103%
Second compound 0.1 µM, first compound 0.001 µM
  viability, T/C: 97.1%
[1]
  viability, T/C: 89.5%
[2]
  viability, T/C: 51.4%
[3]
  viability, T/C: 19.3%
[4]
  viability, T/C: 7.05%
Second compound 0.316 µM, first compound 0.000316 µM
  viability, T/C: 92.6%
Second compound 0.316 µM, first compound 0.001 µM
  viability, T/C: 84.5%
[7]
  viability, T/C: 86.9%
[8]
  viability, T/C: 54%
[9]
  viability, T/C: 14.9%
[10]
  viability, T/C: 6.5%
Second compound 1 µM, first compound 0.000316 µM
  viability, T/C: 99.3%
Second compound 1 µM, first compound 0.001 µM
  viability, T/C: 104%
[13]
  viability, T/C: 81.7%
[14]
  viability, T/C: 37.7%
[15]
  viability, T/C: 15.3%
[16]
  viability, T/C: 5.39%
Second compound 3.16 µM, first compound 0.000316 µM
  viability, T/C: 92.7%
Second compound 3.16 µM, first compound 0.001 µM
  viability, T/C: 91.6%
[19]
  viability, T/C: 80.3%
[20]
  viability, T/C: 42.2%
[21]
  viability, T/C: 14.9%
[22]
  viability, T/C: 4.76%
Second compound 10 µM, first compound 0.000316 µM
  viability, T/C: 174%
Second compound 10 µM, first compound 0.001 µM
  viability, T/C: 178%
[25]
  viability, T/C: 150%
[26]
  viability, T/C: 50.1%
[27]
  viability, T/C: 18.2%
[28]
  viability, T/C: 5.74%

## O=C(c1cc(Cc2n[nH]c(=O)c3ccccc23)ccc1F)N1CCN(C(=O)C2CC2)CC1 + Cc1c(S(C)(=O)=O)c(-c2cc(F)cc(N3CCN(c4ccc(NS(=O)(=O)c5ccc(NC(CCN6CCC(C(=O)OCCCP(=O)(O)O)CC6)CSc6ccccc6)c(S(=O)(=O)C(F)(F)F)c5)cc4)CC3)c2)c(-c2ccc(Cl)cc2)n1C(C)C
Second compound 0.1 µM
  IC50: 3740 nM
Second compound 0.316 µM
  IC50: 2530 nM
Second compound 1 µM
  IC50: 2490 nM
Second compound 3.16 µM
  IC50: 2500 nM
Second compound 10 µM
  IC50: 3150 nM
[3]
  viability, T/C: 103%
[4]
  viability, T/C: 102%
[5]
  viability, T/C: 88.6%
[6]
  viability, T/C: 88.1%
Second compound 0.1 µM, first compound 3.16 µM
  viability, T/C: 55.5%
Second compound 0.1 µM, first compound 10 µM
  viability, T/C: 9.69%
[9]
  viability, T/C: 85.4%
[10]
  viability, T/C: 89.2%
[11]
  viability, T/C: 86.4%
[12]
  viability, T/C: 75.4%
Second compound 0.316 µM, first compound 3.16 µM
  viability, T/C: 43.9%
Second compound 0.316 µM, first compound 10 µM
  viability, T/C: 7.08%
[15]
  viability, T/C: 94.5%
[16]
  viability, T/C: 102%
[17]
  viability, T/C: 86.9%
[18]
  viability, T/C: 76.9%
Second compound 1 µM, first compound 3.16 µM
  viability, T/C: 43%
Second compound 1 µM, first compound 10 µM
  viability, T/C: 6.29%
[21]
  viability, T/C: 94%
[22]
  viability, T/C: 89.5%
[23]
  viability, T/C: 86%
[24]
  viability, T/C: 76%
Second compound 3.16 µM, first compound 3.16 µM
  viability, T/C: 43.2%
Second compound 3.16 µM, first compound 10 µM
  viability, T/C: 4.54%
[27]
  viability, T/C: 164%
[28]
  viability, T/C: 164%
[29]
  viability, T/C: 157%
[30]
  viability, T/C: 112%
Second compound 10 µM, first compound 3.16 µM
  viability, T/C: 49.1%
Second compound 10 µM, first compound 10 µM
  viability, T/C: 6.96%

## O=C(c1ccc(F)c(F)c1Nc1ccc(I)cc1F)N1CC(O)([C@@H]2CCCCN2)C1 + Cc1c(S(C)(=O)=O)c(-c2cc(F)cc(N3CCN(c4ccc(NS(=O)(=O)c5ccc(NC(CCN6CCC(C(=O)OCCCP(=O)(O)O)CC6)CSc6ccccc6)c(S(=O)(=O)C(F)(F)F)c5)cc4)CC3)c2)c(-c2ccc(Cl)cc2)n1C(C)C
Second compound 0.1 µM
  IC50: 277 nM
Second compound 0.316 µM
  IC50: 215 nM
Second compound 1 µM
  IC50: 196 nM
Second compound 3.16 µM
  IC50: 146 nM
Second compound 10 µM
  IC50: 458 nM
[1]
  viability, T/C: 92.1%
[2]
  viability, T/C: 96.2%
[3]
  viability, T/C: 81.7%
[4]
  viability, T/C: 67.3%
[5]
  viability, T/C: 49%
[6]
  viability, T/C: 18.4%
[7]
  viability, T/C: 91.5%
[8]
  viability, T/C: 80.4%
[9]
  viability, T/C: 76.9%
[10]
  viability, T/C: 62.9%
[11]
  viability, T/C: 44.1%
[12]
  viability, T/C: 14.6%
[13]
  viability, T/C: 98.6%
[14]
  viability, T/C: 80.6%
[15]
  viability, T/C: 74.5%
[16]
  viability, T/C: 58.7%
[17]
  viability, T/C: 49%
[18]
  viability, T/C: 12.9%
[19]
  viability, T/C: 91.5%
[20]
  viability, T/C: 84.9%
[21]
  viability, T/C: 75.1%
[22]
  viability, T/C: 56.4%
[23]
  viability, T/C: 35.9%
[24]
  viability, T/C: 15.4%
[25]
  viability, T/C: 170%
[26]
  viability, T/C: 167%
[27]
  viability, T/C: 131%
[28]
  viability, T/C: 97.9%
[29]
  viability, T/C: 70.8%
[30]
  viability, T/C: 17.1%
